{
  "source": "patent US4419349A",
  "about": "(priority 1978, dated 1983)",
  "assay_type_in_all_cases": "cell-based",
  "key": {"human spleen cells": {"system": "human spleen cells", "assay": "IF induction in vitro, human spleen (Table 6)", "settings": "control 1.0 μg/ml", "method": "(§1) A spleen cell suspension (10^7 cells/ml) was prepared by the method of hereinafter described Experiment 1 using an Eagle MEM medium (commercial product of Nissui Seiyaku K.K., Tokyo) containing a 10% calf serum (which was replaced by a 10% fetal cattle serum in the cases of human tests), each of which fraction (1 ml) was added with a given concentration of the sample of the active substance and incubated at a given temperature. The cultured liquor was centrifuged to separate a supernatant which was used for determining the IF activity induced. In the case of humans, the fresh spleen was collected from a person (adult deceased by external wounds) and used for the preparation of a leucocytes suspension on each occasion, and also blood was collected from the vein at the upper arm of a person (adult), from which the serum was separated to use for the preparation of a serum suspension on each occasion.\n(§2) The IF activities were determined by using the cells shown in Table 5 in a similar manner to that hereinafter described in Experiment 1."}, "rabbit spleen cells": {"system": "rabbit spleen cells"}, "mouse spleen cells": {"system": "mouse spleen cells", "assay": "IF induction in vitro, mouse (Table 6)", "settings": "control 1.0 μg/ml", "method": "as §1, §2"}},
  "data": [
    {"substance": "Poly I:C", "values": [
      {"measurement": "IF activity in vitro (Control)", "setting": "human spleen cells", "value": "< 5"},
      {"measurement": "IF activity in vitro (Control)", "setting": "rabbit spleen cells", "value": 220},
      {"measurement": "IF activity in vitro (Control)", "setting": "mouse spleen cells", "value": 120}
    ]}
  ]
}
